The supplement of paper PMC12370961

Tests used:
Assay in all cases: differential drug sensitivity score (dDSS) relative to sarcoma reference cohort mean DSS (DSS units (0-100 scale difference)); higher = more selective sensitivity than reference sarcomas
Details in all cases: exposure time: 72 h; concentration range: 10-10000 nM
CDS-ZH001-2 = test system: CDS-ZH001-2 (patient-derived CIC-DUX4 sarcoma tumoroid)
Description: (§1)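 Drug response profiling of patient-derived Ewing sarcoma and CIC::DUX4 sarcoma tumoroid models (or cells tested directly after isolation from the tumor, 'direct'). The DSS is the normalised AUC (0-100); dDSS is the sample DSS minus the mean DSS of a 34-sarcoma reference cohort profiled in the same lab.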

CDS-ZH001 = test system: CDS-ZH001 (patient-derived CIC-DUX4 sarcoma tumoroid)
Description: as §1

CDS-ZH002 direct = test system: CDS-ZH002 direct (CIC-DUX4 sarcoma cells right after isolation)
Description: as §1

CDS-ZH002 = test system: CDS-ZH002 (patient-derived CIC-DUX4 sarcoma tumoroid)
Description: as §1

CDS-ZH003 = test system: CDS-ZH003 (patient-derived CIC-DUX4 sarcoma tumoroid)
Description: as §1

ES-ZH001 = test system: ES-ZH001 (patient-derived Ewing sarcoma tumoroid)
Description: as §1

ES-ZH002 = test system: ES-ZH002 (patient-derived Ewing sarcoma tumoroid)
Description: as §1

ES-ZH004 = test system: ES-ZH004 (patient-derived Ewing sarcoma tumoroid)
Description: as §1

ES-ZH007 = test system: ES-ZH007 (patient-derived Ewing sarcoma tumoroid)
Description: as §1

ES-ZH008 = test system: ES-ZH008 (patient-derived Ewing sarcoma tumoroid)
Description: as §1

ES-ZH009 = test system: ES-ZH009 (patient-derived Ewing sarcoma tumoroid)
Description: as §1

ES-ZH016 direct = test system: ES-ZH016 direct (Ewing sarcoma cells right after isolation)
Description: as §1

ES-ZH016 = test system: ES-ZH016 (patient-derived Ewing sarcoma tumoroid)
Description: as §1

Row | Compound | differential drug sensitivity score (CDS-ZH001-2) | differential drug sensitivity score (CDS-ZH001) | differential drug sensitivity score (CDS-ZH002 direct) | differential drug sensitivity score (CDS-ZH002) | differential drug sensitivity score (CDS-ZH003) | differential drug sensitivity score (ES-ZH001) | differential drug sensitivity score (ES-ZH002) | differential drug sensitivity score (ES-ZH004) | differential drug sensitivity score (ES-ZH007) | differential drug sensitivity score (ES-ZH008) | differential drug sensitivity score (ES-ZH009) | differential drug sensitivity score (ES-ZH016 direct) | differential drug sensitivity score (ES-ZH016)
1 | CC#CC(=O)N1CCC[C@H]1c1nc(-c2ccc(C(=O)Nc3ccccn3)cc2)c2c(N)nccn12 [Acalabrutinib] | -2.5 | -3.5 | -3.2 | -2.9 | 1.4 | 5.7 | 9.7 | 11.2 | -3.5 | 17.5 | -3.5 | 2.4 | -2.1
2 | C=CCn1c(=O)c2cnc(Nc3ccc(N4CCN(C)CC4)cc3)nc2n1-c1cccc(C(C)(C)O)n1 [Adavosertib] | 5.3 | 4.9 | -2.6 | 3 | 4.9 | 8.1 | 12 | 0.2 | 4 | 7.6 | 10.9 | 8.1 | 2.8
3 | CN(C)C/C=C/C(=O)Nc1cc2c(Nc3ccc(F)c(Cl)c3)ncnc2cc1O[C@H]1CCOC1 [Afatinib] | -3.4 | -4.6 | -4.7 | -4.9 | -4.9 | -3.9 | -2 | -0.3 | -4.2 | -1.4 | -3 | -2.4 | -4.6
4 | Cn1ncc(Cl)c1-c1cc(C(=O)N[C@H](CN)Cc2cccc(F)c2)sc1Cl [Afuresertib] | 0.3 | 2.8 | -5.5 | -4.7 | 1.1 | -4.1 | 5.8 | 4.1 | 2.4 | 4.6 | 3.6 | -3.4 | -0.3
5 | CCc1cc2c(cc1N1CCC(N3CCOCC3)CC1)C(C)(C)c1[nH]c3cc(C#N)ccc3c1C2=O [Alectinib] | -1.3 | -1.2 | -0.8 | -1.3 | 2.4 | -0.5 | 4.6 | -1.3 | -1.3 | -0.7 | -1.3 | -1.3 | -1.3
6 | COc1cc(Nc2ncc3c(n2)-c2ccc(Cl)cc2C(c2c(F)cccc2OC)=NC3)ccc1C(=O)O [Alisertib] | 5.5 | -3.4 | -7.3 | -3.7 | -0.9 | 20 | 21.5 | -11.3 | 8.5 | 8.2 | 15.8 | 17.2 | 15.3
7 | Cc1nc(NC(=O)N2CCC[C@H]2C(N)=O)sc1-c1ccnc(C(C)(C)C(F)(F)F)c1 [Alpelisib] | 4.9 | 2.9 | -2 | -3 | 0.2 | -3.7 | 11 | 0.8 | -1.9 | 11 | 2.5 | 0.9 | 1
8 | CN1CC[C@H](c2c(O)cc(O)c3c(=O)cc(-c4ccccc4Cl)oc23)[C@H](O)C1 [Alvocidib] | 5.7 | 8.5 | 8.9 | 5.8 | 8 | 2.6 | 7.1 | 6.6 | 7.8 | 6.3 | 9 | 3.7 | 6.1
9 | COc1cc(NS(C)(=O)=O)ccc1Nc1c2ccccc2nc2ccccc12 [Amsacrine] | 3 | -1.9 | -4.1 | 1.6 | -12.8 | 12.5 | 27.1 | 8.8 | 8.9 | 16.3 | 8.4 | 13.3 | 13.7
10 | COc1cc(OC)c2c(=O)[nH]c(-c3cc(C)c(OCCO)c(C)c3)nc2c1 [Apabetalone] | -0.7 | -0.6 | -0.7 | -0.7 | 3.6 | -0.7 | 0.6 | 0.6 | -0.7 | 3.2 | 0.5 | -0.7 | -0.7
11 | CNC(=O)c1ccccc1Sc1ccc2c(/C=C/c3ccccn3)n[nH]c2c1 [Axitinib] | -0.8 | -0.9 | -0.9 | -0.9 | 6 | -0.9 | 2.2 | -0.9 | -0.9 | -0.9 | 0.4 | 3.8 | -0.9
12 | Nc1ncn([C@@H]2O[C@H](CO)[C@@H](O)[C@H]2O)c(=O)n1 [Azacitidine] | -0.6 | -0.4 | 0.2 | 0.2 | -1.2 | -1.2 | 4.4 | -1.2 | -1.2 | -1.2 | 0.6 | -1.2 | -1.2
13 | Cc1ccc(C(=O)Nc2cccc(C(F)(F)F)c2)cc1Nc1nc(-c2cccnc2)nc2c1cnn2C [BHG712] | -1.6 | -1.6 | -1.6 | -1.6 | -1.6 | -1.1 | 3.8 | 0.6 | -1.6 | 7.1 | -1.6 | -1.6 | -1.6
14 | CC[C@@H]1C(=O)N(C)c2cnc(Nc3ccc(C(=O)NC4CCN(C)CC4)cc3OC)nc2N1C1CCCC1 [BI-2536] | 1.7 | -0.7 | -8 | 2.2 | -10 | 21.6 | 19 | 2.9 | 6.1 | 2.3 | 19.6 | 13.4 | 17.6
15 | CC(C)CCN1c2nc(Nc3cc(F)c(O)c(F)c3)ncc2N(C)C(=O)C1C (configuration not stated) [BI-D1870] | -0.8 | 1.3 | -1.7 | -2.3 | 4.1 | 2.9 | 3.1 | 3 | 0.6 | 5.6 | 8.6 | 7.3 | 2.7
16 | Fc1cc(-c2cccc3ncc(-c4cnn(C5CCNCC5)c4)nc23)cc(F)c1CN1CCOCC1 [BSK805] | 1.9 | 2.5 | 0.1 | -2.6 | 2.6 | -0.1 | 3.2 | 1.4 | 2.8 | 2.9 | 1.7 | 3 | 2.5
17 | O=C(NCCCNc1nc(Nc2cccc(NC(=O)N3CCCC3)c2)ncc1I)c1cccs1 [BX-795] | -2.6 | -4.1 | -2.6 | -1.9 | 5.5 | 3.7 | 2.2 | -3.5 | 0 | -2.2 | 1.1 | 5.1 | 2.6
18 | CCN(CCCOc1ccc2c(Nc3cc(CC(=O)Nc4cccc(F)c4)[nH]n3)ncnc2c1)CCOP(=O)(O)O [Barasertib] | 4.6 | -8.9 | -3 | -3 | -8.9 | 32.8 | 26.1 | 10.1 | 4.7 | 17.5 | 27.6 | 23.8 | 22.6
19 | Cc1sc2c(c1C)C(c1ccc(Cl)cc1)=N[C@@H](CC(=O)Nc1ccc(O)cc1)c1nnc(C)n1-2 [Birabresib] | 1 | -1.1 | 1.5 | -11.1 | -0.8 | -5.6 | 0.3 | -6.7 | -4.1 | 5.9 | 11.9 | 11.1 | -7.9
20 | CC[C@H](NC(=O)[C@H](C)NC)C(=O)N1C[C@@H](O)C[C@H]1Cc1c(-c2[nH]c3cc(F)ccc3c2C[C@@H]2C[C@H](O)CN2C(=O)[C@H](CC)NC(=O)[C@H](C)NC)[nH]c2cc(F)ccc12 [Birinapant] | 16.6 | 21.9 | 4.6 | -1.8 | 13 | -0.8 | -0.4 | -2.3 | -0.4 | -0.3 | 5.7 | 4.6 | -1.3
21 | CC(C)C[C@H](NC(=O)[C@H](Cc1ccccc1)NC(=O)c1cnccn1)B(O)O [Bortezomib] | 6 | 6.9 | 6.9 | 3.6 | 6 | 3.9 | 4.7 | 5.5 | 6.4 | -0.2 | 7 | -2.6 | -5.9
22 | COc1cc(Nc2c(C#N)cnc3cc(OCCCN4CCN(C)CC4)c(OC)cc23)c(Cl)cc1Cl [Bosutinib] | 1.8 | 0.6 | -0.5 | 0.1 | -0.4 | -0.5 | -0.5 | -0.5 | -0.5 | -0.5 | 0.5 | 0.2 | 1.1
23 | COc1cc(N2CCC(N3CCN(C)CC3)CC2)ccc1Nc1ncc(Cl)c(Nc2ccccc2P(C)(C)=O)n1 [Brigatinib] | 7.6 | 3.4 | -0.2 | -4.2 | 2 | -0.4 | 9 | -3 | 1.9 | 4.1 | 2.5 | 0.4 | 1.9
24 | Nc1cc(C(F)(F)F)c(-c2cc(N3CCOCC3)nc(N3CCOCC3)n2)cn1 [Buparlisib] | 2.9 | 3.3 | -2.5 | -2.2 | 6.9 | 1.5 | 7.6 | -2.2 | -0.1 | 4.6 | 2.5 | 0.6 | -0.6
25 | CS(=O)(=O)OCCCCOS(C)(=O)=O [Busulfan] | -0.8 | -1.2 | -1.2 | -1.2 | -1.2 | 3.9 | 5.9 | 2.9 | -1.2 | -0.1 | -1.2 | 6.4 | -1.1
26 | CCS(=O)(=O)N1CCC([C@@H](C)n2c(C)c(C(=O)NCc3c(OC)cc(C)[nH]c3=O)c3ccccc32)CC1 [CPI169] | -0.4 | -0.4 | -0.4 | -0.4 | -0.3 | -0.4 | -0.4 | -0.4 | -0.4 | -0.4 | -0.3 | 3.3 | -0.4
27 | COc1cc2nccc(Oc3ccc(NC(=O)C4(C(=O)Nc5ccc(F)cc5)CC4)cc3)c2cc1OC [Cabozantinib] | -2.6 | -2.6 | -2 | -2.6 | -1.5 | 3.6 | 3.4 | 5.9 | -1 | 1.7 | -1.5 | -2.6 | -2.4
28 | CC(C)C[C@H](NC(=O)[C@H](CCc1ccccc1)NC(=O)CN1CCOCC1)C(=O)N[C@@H](Cc1ccccc1)C(=O)N[C@@H](CC(C)C)C(=O)[C@@]1(C)CO1 [Carfilzomib] | 6 | 5.3 | 5.5 | 0.7 | 4.4 | 8.2 | 9.9 | 10.9 | 12.2 | 4 | 10.8 | 6.8 | 4.3
29 | O=NN(CCCl)C(=O)NCCCl [Carmustine] | -0.5 | -1.3 | -1.2 | -1.2 | -1.3 | 2.6 | 7.3 | 1.6 | -1.3 | 1.4 | -1.3 | 2.1 | 1.1
